Where two headings read alike, the source gives them in different places.
Tests used:
WI-38 cells = type: cell-based, human
[1] = test system: MOLT-4 cells / syncytiotrophoblasts; assay: Adhesion of uninfected MOLT-4 clone 8 cells to syncytiotrophoblasts; type: cell-based, human
Source text: Human fetal placental epithelial cells, known as syncytiotrophoblasts, were organized in a monolayer and exposed to HIV-infected lymphocytic cells and, as a negative control, to uninfected cells of the same type. This experimental system, closely simulating the actual conditions under which syncytiotrophoblasts would be exposed to HIV-infected cells in vivo, was used to assess integrin-modulating effects of Ajoene.
MOLT-4 clone 8 cells were labeled with calcein-AM, pretreated with different concentrations of Ajoene (0-200 micromoles per liter) and incubated with cultured term syncytiotrophoblast cells at 37° C. for one hour in the presence of Ajoene. Adhesion was measured directly as fluorescence units after background correction. Controls included measuring adhesion in the presence of the appropriate carrier solvent.

51Cr-labeled monocytes = assay: Monocyte recruitment to inflamed joints in rat adjuvant arthritis; type: in vivo; conditions: 50 mg/kg i.v.; for Accumulation of 51Cr-labeled Monocytes (mean ± SEM): 2 h
Procedure: Rat adjuvant arthritis is characterized by integrin-mediated migration of ^51 Cr-labeled monocytes and ^111 In-labeled neutrophils into the inflamed synovium, which attains maximum between days 14 and 21 after the immunization. This model of human rheumatoid arthritis was used to assess in vivo effects of Ajoene on integrins that are known to be modulated by Ajoene in vitro.
Adjuvant arthritis was induced in 6-8 week old inbred male Lewis rats by immunization on the lower back with 0.5 mg Mycobacterium butyricum (Difco Laboratories, Inc., Detroit, Mich.) in 0.05 ml mineral oil in two sites subcutaneously at the base of the tail. All the animals developed polyarticular arthritis between days 11 and 13 after immunization. For clinical scoring, 0-4 points were assigned per limb and tail, based on the severity of erythema, swelling, and limitation of movement (the maximal possible score was 20).
Rat blood monocytes and neutrophils for migration studies were obtained by the hydroxyethyl starch (HES) exchange transfusion technique. The total blood volume of a donor rat was exchanged using 50 ml 6% HES solution in saline (DuPont Chemical Co., Dorval, Canada). After recovery of 40-45 ml blood/HES perfusate, the red cells were allowed to sediment (1 g) and the leukocyte-rich plasma was harvested. The leukocytes were recovered by centrifugation, resuspended in calcium-magnesium-free Tyrode's solution supplemented with 10% platelet-poor plasma (TS-PPP), and centrifuged in a discontinuous 63%/74% gradient of isotonic Percoll (Pharmacia Fine Chemicals, Dorval, Canada). The top layer, containing mononuclear cells (MN), and the cells in the 63%/74% interface, containing neutrophils, were collected, washed, and resuspended in TS-PPP. To obtain purified monocytes, the osmolality of the MN suspension was increased by adding 9% NaCl, and the suspension was centrifuged in a 40%/55%/58% Percoll gradient; monocytes were harvested at 40%/55% and […] interfaces, washed, and resuspended in TS-PPP.
Thereafter, monocytes (10^7 cells/ml) were labeled with 75 microCurie/ml of Na2^51 CrO4 (Amersham, Oakville, Canada) at 37° C. for 30 min. Neutrophils (10^7 cells/ml) were labeled with 1 microCurie/ml of ^111 In oxine (Amersham) for 10 min. Both populations were washed to remove excess labeled material and checked for viability and purity. The viability of either cell population used in the experiments was in excess of 95% (as double-checked by Trypan blue exclusion and neutral red staining). The separation procedure described above ordinarily produced populations that contained no less than 90% monocytes and no less than 95% neutrophils. […]

HIV-1LAV-BRU 1 = HIV-1LAV-BRU 1 replication in CEM13 cells (HIV antigens by solid phase immunoassay); type: cell-based; conditions: for IC50: Human immunodeficiency virus 1, CEM13 cells
LFA-1 (ICAM-1) = assay: Adhesion of TPA-activated Jurkat cells to SVT2/ICAM-1 monolayers; type: cell-based; conditions: Homo sapiens, 0.75 h, SVT2/ICAM-1, TPA 125 ng/ml, 45 min
Procedure: SVT2 cells transfected with human ICAM-1 or VCAM-1 (SVT2/ICAM-1 and […], respectively) were plated into 96-well plates and cultured overnight. […] The labeled Jurkat cells were washed three times and resuspended at a density of 4×10^6 cells/ml in complete RPMI medium. Serial dilutions of Ajoene were prepared in complete RPMI medium. Aliquots of the cells (0.5 ml) were then mixed with an equal volume of Ajoene dilutions (1:1 v/v), and the mixtures incubated at 37° C. for 30 min. Thereafter, Ajoene-incubated cells were added in duplicate to SVT2/ICAM-1 and SVT2/VCAM-1 monolayers, and TPA was introduced into each well to the final concentration of 125 ng/ml. The plates were incubated at 37° C. for 45 min, after which the non-adherent cells were removed by washing with warm complete RPMI medium. The bound labeled cells were lysed by adding 1% Triton X-100 solution in 0.1 N HCl. The lysates were assayed in a gamma counter to determine the percentage of bound cells. […] Thus, coculturing of Jurkat cells with SVT2/ICAM-1 and SVT2/VCAM-1 cells makes it possible to assess, respectively, the function of IFA-1 and VLA-4 under identical conditions. In the absence of TPA, 10 and 20% of the added Jurkat cells adhered to SVT2/ICAM-1 and SVT2/VCAM-1 cells, respectively. […]

**Q.** For `C=CCSSC=CC[S+]([O-])CC=C` (centres unmarked) [Ajoene, 4,5,9-trithiadodeca-1,6,11-triene-9-oxide], which toxicity (WI-38 cells) is on record?
**A.** no detectable toxicity

**Q.** What about the “inhibition of adhesion of MOLT-4 cells to syncytiotrophoblasts” value ([1]; 200 micromoles per liter) of the same compound?
**A.** 100%

**Q.** What about the IC50 ([1]; Homo sapiens, MOLT-4, 1 hour, 37° C., cells not infected with HIV) of the same compound?
**A.** 60 µM

**Q.** And the “inhibition of monocyte recruitment to the talar joints” value (51Cr-labeled monocytes)?
**A.** ~ 50%

**Q.** And the “Accumulation of 51Cr-labeled Monocytes (mean ± SEM)” value (from here on “Accumulation … (mean ± SEM)”) (51Cr-labeled monocytes; talar joint, P < 0.006 vs control)?
**A.** 25,078 cpm per sample

**Q.** And the “Accumulation … (mean ± SEM)” value (51Cr-labeled monocytes; tarsal joint, N.S.)?
**A.** 10,365 cpm per sample

**Q.** And the “Accumulation … (mean ± SEM)” value (51Cr-labeled monocytes; vertebral joints, P = 0.079)?
**A.** 2,737 cpm per sample

**Q.** What about the “inhibition of HIV replication, stepwise addition” value (HIV-1LAV-BRU 1; 50 nanomoles per liter per 12 h, total 0.25 micromoles per liter, m.o.i. 0.1, 72 h) of the same compound?
**A.** 30%

**Q.** What about the IC50 (HIV-1LAV-BRU 1; HIV-1Lav-BRU1, read-out: IC50 of HIV replication (FIG. 1, curve 2)) of the same compound?
**A.** ~5 µM

**Q.** What about the IC50 (HIV-1LAV-BRU 1; m.o.i. 0.1, 72 h, read-out: IC50 for HIV-1LAV-BRU 1 replication) of the same compound?
**A.** ~5 µM

**Q.** And the IC50 (LFA-1 (ICAM-1))?
**A.** 10 µM
